Test results as given in ChEMBL document CHEMBL5131391, “One-pot three-component synthesis of novel pyrazolo[3,4-b]pyridines as potent antileukemic agents” (Eur J Med Chem, 2022).

Experiments:
Format in all cases: functional
K562 [1] = test: Antiproliferative activity against human K562 cells assessed as reduction in cell viability incubated for 72 hrs by resazurin dye based assay; settings: K562, 72 h
CAKI-1 = test: Antiproliferative activity against human CAKI-1 cells assessed as growth inhibition at 10 uM measured after 48 hrs by NCI protocol based SRB assay relative to control; settings: read-out: GI
NCI-H226 = test: Antiproliferative activity against human NCI-H226 cells assessed as growth inhibition at 10 uM measured after 48 hrs by NCI protocol based SRB assay relative to control; settings: read-out: GI
M14 = test: Antiproliferative activity against human M14 cells assessed as growth inhibition at 10 uM measured after 48 hrs by NCI protocol based SRB assay relative to control; settings: read-out: GI
NCI/ADR-RES = test: Antiproliferative activity against human NCl/ADR-RES cells assessed as growth inhibition at 10 uM measured after 48 hrs by NCI protocol based SRB assay relative to control; settings: read-out: GI
NCI-H522 = test: Antiproliferative activity against human NCI-H522 cells assessed as growth inhibition at 10 uM measured after 48 hrs by NCI protocol based SRB assay relative to control; settings: read-out: GI
U-251 = test: Antiproliferative activity against human U-251 cells assessed as growth inhibition at 10 uM measured after 48 hrs by NCI protocol based SRB assay relative to control; settings: read-out: GI
TK-10 = test: Antiproliferative activity against human TK-10 cells assessed as growth inhibition at 10 uM measured after 48 hrs by NCI protocol based SRB assay relative to control; settings: read-out: GI
786-0 = test: Antiproliferative activity against human 786-0 cells assessed as growth inhibition at 10 uM measured after 48 hrs by NCI protocol based SRB assay relative to control; settings: read-out: GI
COLO 205 = test: Antiproliferative activity against human COLO 205 cells assessed as growth inhibition at 10 uM measured after 48 hrs by NCI protocol based SRB assay relative to control; settings: read-out: GI
DU-145 = test: Antiproliferative activity against human DU-145 cells assessed as growth inhibition at 10 uM measured after 48 hrs by NCI protocol based SRB assay relative to control; settings: read-out: GI
SF-268 = test: Antiproliferative activity against human SF-268 cells assessed as growth inhibition at 10 uM measured after 48 hrs by NCI protocol based SRB assay relative to control; settings: read-out: GI
BT-549 = test: Antiproliferative activity against human BT-549 cells assessed as growth inhibition at 10 uM measured after 48 hrs by NCI protocol based SRB assay relative to control; settings: read-out: GI
SF-539 = test: Antiproliferative activity against human SF-539 cells assessed as growth inhibition at 10 uM measured after 48 hrs by NCI protocol based SRB assay relative to control; settings: read-out: GI
NCI-H322M = test: Antiproliferative activity against human NCI-H322M cells assessed as growth inhibition at 10 uM measured after 48 hrs by NCI protocol based SRB assay relative to control; settings: read-out: GI
SK-MEL-2 = test: Antiproliferative activity against human SK-MEL-2 cells assessed as growth inhibition at 10 uM measured after 48 hrs by NCI protocol based SRB assay relative to control; settings: read-out: GI
SK-MEL-5 = test: Antiproliferative activity against human SK-MEL-5 cells assessed as growth inhibition at 10 uM measured after 48 hrs by NCI protocol based SRB assay relative to control; settings: read-out: GI
HCT-116 = test: Antiproliferative activity against human HCT-116 cells assessed as growth inhibition at 10 uM measured after 48 hrs by NCI protocol based SRB assay relative to control; settings: read-out: GI
ACHN = test: Antiproliferative activity against human ACHN cells assessed as growth inhibition at 10 uM measured after 48 hrs by NCI protocol based SRB assay relative to control; settings: read-out: GI
RXF 393 = test: Antiproliferative activity against human RXF 393 cells assessed as growth inhibition at 10 uM measured after 48 hrs by NCI protocol based SRB assay relative to control; settings: read-out: GI
OVCAR-8 = test: Antiproliferative activity against human OVCAR-8 cells assessed as growth inhibition at 10 uM measured after 48 hrs by NCI protocol based SRB assay relative to control; settings: read-out: GI
CCRF-CEM [2] = test: Antiproliferative activity against human CCRF-CEM cells assessed as growth inhibition at 10 uM measured after 48 hrs by NCI protocol based SRB assay relative to control; settings: read-out: GI
T47D = test: Antiproliferative activity against human T47D cells assessed as growth inhibition at 10 uM measured after 48 hrs by NCI protocol based SRB assay relative to control; settings: read-out: GI
KM12 = test: Antiproliferative activity against human KM12 cells assessed as growth inhibition at 10 uM measured after 48 hrs by NCI protocol based SRB assay relative to control; settings: read-out: GI
IGROV-1 = test: Antiproliferative activity against human IGROV-1 cells assessed as growth inhibition at 10 uM measured after 48 hrs by NCI protocol based SRB assay relative to control; settings: read-out: GI
HOP-92 = test: Antiproliferative activity against human HOP-92 cells assessed as growth inhibition at 10 uM measured after 48 hrs by NCI protocol based SRB assay relative to control; settings: read-out: GI
CCRF-CEM [3] = test: Antiproliferative activity against human CEM cells assessed as reduction in cell viability incubated for 72 hrs by resazurin dye based assay
SF-295 = test: Antiproliferative activity against human SF-295 cells assessed as growth inhibition at 10 uM measured after 48 hrs by NCI protocol based SRB assay relative to control; settings: read-out: GI
A549 = test: Antiproliferative activity against human A549 cells assessed as growth inhibition at 10 uM measured after 48 hrs by NCI protocol based SRB assay relative to control; settings: read-out: GI
MDA-MB-468 = test: Antiproliferative activity against human MDA-MB-468 cells assessed as growth inhibition at 10 uM measured after 48 hrs by NCI protocol based SRB assay relative to control; settings: read-out: GI
SNB-75 = test: Antiproliferative activity against human SNB-75 cells assessed as growth inhibition at 10 uM measured after 48 hrs by NCI protocol based SRB assay relative to control; settings: read-out: GI
HOP-62 = test: Antiproliferative activity against human HOP-62 cells assessed as growth inhibition at 10 uM measured after 48 hrs by NCI protocol based SRB assay relative to control; settings: read-out: GI
MCF7 = test: Antiproliferative activity against human MCF7 cells assessed as growth inhibition at 10 uM measured after 48 hrs by NCI protocol based SRB assay relative to control; settings: read-out: GI
SNB-19 = test: Antiproliferative activity against human SNB-19 cells assessed as growth inhibition at 10 uM measured after 48 hrs by NCI protocol based SRB assay relative to control; settings: read-out: GI
HCT-15 = test: Antiproliferative activity against human HCT-15 cells assessed as growth inhibition at 10 uM measured after 48 hrs by NCI protocol based SRB assay relative to control; settings: read-out: GI
MOLT-4 = test: Antiproliferative activity against human MOLT-4 cells assessed as growth inhibition at 10 uM measured after 48 hrs by NCI protocol based SRB assay relative to control; settings: read-out: GI
K562 [4] = test: Antiproliferative activity against human K562 cells assessed as growth inhibition at 10 uM measured after 48 hrs by NCI protocol based SRB assay relative to control; settings: read-out: GI

Row | SMILES | IC50 (K562 [1]) | inhibition of growth at 10 µM (CAKI-1) | inhibition of growth at 10 µM (NCI-H226) | inhibition of growth at 10 µM (M14) | inhibition of growth at 10 µM (NCI/ADR-RES) | inhibition of growth at 10 µM (NCI-H522) | inhibition of growth at 10 µM (U-251) | inhibition of growth at 10 µM (TK-10) | inhibition of growth at 10 µM (786-0) | inhibition of growth at 10 µM (COLO 205) | inhibition of growth at 10 µM (DU-145) | inhibition of growth at 10 µM (SF-268) | inhibition of growth at 10 µM (BT-549) | inhibition of growth at 10 µM (SF-539) | inhibition of growth at 10 µM (NCI-H322M) | inhibition of growth at 10 µM (SK-MEL-2) | inhibition of growth at 10 µM (SK-MEL-5) | inhibition of growth at 10 µM (HCT-116) | inhibition of growth at 10 µM (ACHN) | inhibition of growth at 10 µM (RXF 393) | further results
1 | N#Cc1c(-c2ccccc2)nc2c(c(-c3ccccc3)nn2-c2ccccc2)c1-c1ccc(O)cc1 | 9.6 µM | 48% | 46% | 44% | 30% | 99% | 76% | 79% | 97% | 59% | 51% | 45% | 41% | 77% | 34% | 28% | 42% | 66% | 58% | 117% | inhibition of growth at 10 µM (OVCAR-8): 45%; inhibition of growth at 10 µM (CCRF-CEM [2]): 78%; inhibition of growth at 10 µM (T47D): 65%; inhibition of growth at 10 µM (KM12): 53%; inhibition of growth at 10 µM (IGROV-1): 29%; inhibition of growth at 10 µM (HOP-92): 50%; IC50 (CCRF-CEM [3]): 33.4 µM; inhibition of growth at 10 µM (SF-295): 143%; inhibition of growth at 10 µM (A549): 59%; inhibition of growth at 10 µM (MDA-MB-468): 62%; inhibition of growth at 10 µM (SNB-75): 67%; inhibition of growth at 10 µM (HOP-62): 75%; inhibition of growth at 10 µM (MCF7): 86%; inhibition of growth at 10 µM (SNB-19): 61%; inhibition of growth at 10 µM (HCT-15): 66%
2 | N#Cc1c(-c2ccc(Cl)cc2)nc2c(c(-c3ccccc3)nn2-c2ccccc2)c1-c1ccc(O)cc1 | 20.8 µM | 60% | 35% | 62% | 43% | 45% | 67% | 83% | 83% | 48% | 50% | 54% | 38% | 89% | 30% | 26% | 44% | 86% | 44% | 127% | inhibition of growth at 10 µM (MOLT-4): 76%; inhibition of growth at 10 µM (OVCAR-8): 51%; inhibition of growth at 10 µM (CCRF-CEM [2]): 73%; inhibition of growth at 10 µM (K562 [4]): 92%; inhibition of growth at 10 µM (T47D): 45%; inhibition of growth at 10 µM (KM12): 59%; inhibition of growth at 10 µM (IGROV-1): 31%; inhibition of growth at 10 µM (HOP-92): 44%; IC50 (CCRF-CEM [3]): 43.1 µM; inhibition of growth at 10 µM (SF-295): 99%; inhibition of growth at 10 µM (A549): 59%; inhibition of growth at 10 µM (MDA-MB-468): 69%; inhibition of growth at 10 µM (SNB-75): 58%; inhibition of growth at 10 µM (HOP-62): 51%; inhibition of growth at 10 µM (MCF7): 81%; inhibition of growth at 10 µM (SNB-19): 35%; inhibition of growth at 10 µM (HCT-15): 73%
